# Experimental data as given in PubChem BioAssay AID256 (DTP/NCI, 2004).
# Where “and” joins values, the source holds several entries; their conditions need not be identical. Equal entries are not always repeated. Toxic doses and inconclusive results are not listed.
# System: CD2F1 mice, L1210 leukemia ip, survival T/C
# Experiment: NCI In Vivo Anticancer Drug Screen. Data for tumor model L1210 Leukemia (intraperitoneal) in CD2F1 (CDF1) mice
# Conditions: endpoint: mean survival time, higher = longer survival
# Method in brief: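 Antitumor effect is scored in animals hosting a serially transplanted tumor. Values compare compound-dosed animals against vehicle-only controls as a simple quotient.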
# [1] = dose: 100.0 mg/kg/injection, schedule: Q01DX001 (ip), vehicle: saline with Tween-80
# [2] = dose: 200.0 mg/kg/injection, schedule: Q01DX001 (ip), vehicle: saline with Tween-80
# [3] = dose: 400.0 mg/kg/injection, schedule: Q01DX001 (ip), vehicle: saline with Tween-80
# [4] = dose: 100.0 mg/kg/injection, schedule: Q04DX002 (ip), vehicle: saline with Tween-80
# [5] = dose: 200.0 mg/kg/injection, schedule: Q04DX002 (ip), vehicle: saline with Tween-80
# [6] = dose: 400.0 mg/kg/injection, schedule: Q04DX002 (ip), vehicle: saline with Tween-80
# [7] = dose: 12.5 mg/kg/injection, schedule: Q04DX003 (ip), vehicle: saline
# [8] = dose: 25.0 mg/kg/injection, schedule: Q04DX003 (ip), vehicle: saline
# [9] = dose: 100.0 mg/kg/injection, schedule: Q04DX003 (ip), vehicle: saline
# [10] = dose: 100.0 mg/kg/injection, schedule: Q01DX009 (ip), vehicle: saline
structure (smiles),measurement,setting,value
O=C(Nc1cccc([N+](=O)[O-])c1)N(c1ccccc1)c1ccccc1,T/C,"dose: 100.0 mg/kg/injection, schedule: Q01DX001 (ip), vehicle: saline",88 % of control
same,T/C,"dose: 200.0 mg/kg/injection, schedule: Q01DX001 (ip), vehicle: saline",94 % of control
same,T/C,"dose: 400.0 mg/kg/injection, schedule: Q01DX001 (ip), vehicle: saline",93 % of control
c1csc(CCc2nc3ccccc3o2)c1,T/C,[1],103 % of control
same,T/C,"dose: 100.0 mg/kg/injection, schedule: Q01DX009 (ip), vehicle: saline with Tween-80",93 % of control
same,T/C,[2],98 % of control
same,T/C,"dose: 200.0 mg/kg/injection, schedule: Q01DX009 (ip), vehicle: saline with Tween-80",97 % of control
same,T/C,[3],112 % of control
same,T/C,"dose: 400.0 mg/kg/injection, schedule: Q01DX009 (ip), vehicle: saline with Tween-80",93 % of control
O=C(O)C1=CCCC(O)CC1 (stereo not given),T/C,[1],95 % of control
same,T/C,[4],100 % of control
same,T/C,[2],94 % of control
same,T/C,[5],96 % of control
same,T/C,[3],95 % of control
same,T/C,[6],103 % of control
O=C(O)c1ccc(C(=O)O)c(C(=O)O)c1.[NH-]Cc1ccccc1C[NH-].[Pt+2],T/C,"dose: 5.0 mg/kg/injection, schedule: Q04DX003 (ip), vehicle: sodium bicarbonate",110 % of control
same,T/C,"dose: 10.0 mg/kg/injection, schedule: Q04DX003 (ip), vehicle: sodium bicarbonate",110 % of control
same,T/C,"dose: 20.0 mg/kg/injection, schedule: Q04DX003 (ip), vehicle: sodium bicarbonate",108 % of control
same,T/C,"dose: 40.0 mg/kg/injection, schedule: Q04DX003 (ip), vehicle: sodium bicarbonate",108 % of control
same,T/C,"dose: 80.0 mg/kg/injection, schedule: Q04DX003 (ip), vehicle: sodium bicarbonate",96 % of control
NC1=NC(=S)CS1,T/C,"dose: 75.0 mg/kg/injection, schedule: Q01DX001 (ip), vehicle: saline",95 % of control
same,T/C,"dose: 150.0 mg/kg/injection, schedule: Q01DX001 (ip), vehicle: saline",95 % of control
same,T/C,"dose: 300.0 mg/kg/injection, schedule: Q01DX001 (ip), vehicle: saline",87 % of control
N/C(=N/O)c1cn(C2OC(CO)C(O)C2O)c2nc[nH]c(=O)c12 (stereo not given),T/C,"dose: 75.0 mg/kg/injection, schedule: Q01DX001 (ip), vehicle: water",119 % of control
CC(C)(C(=O)c1ccccc1)C(OC(=O)c1ccccc1)c1ccccc1 (stereo not given),T/C,[1],106 % of control
same,T/C,[2],98 % of control
same,T/C,[3],104 % of control
O=C1C2CCN(CC2)C1CN1CCOCC1 (stereo not given),T/C,[7],96 % of control
same,T/C,[8],100 % of control
same,T/C,"dose: 50.0 mg/kg/injection, schedule: Q04DX003 (ip), vehicle: saline",111 % of control
CC([NH-])CC[NH-].O=S(=O)(O)O.[Pt+2] (stereo not given),T/C,"dose: 6.25 mg/kg/injection, schedule: Q04DX003 (ip), vehicle: saline",158 % of control
CC(C)C(=O)OCCOC(=O)C(C)C,T/C,[9],100 % of control
same,T/C,"dose: 200.0 mg/kg/injection, schedule: Q04DX003 (ip), vehicle: saline",97 % of control
same,T/C,"dose: 400.0 mg/kg/injection, schedule: Q04DX003 (ip), vehicle: saline",96 % of control
NS(=O)(=O)c1ccc(NC2OCC(O)C(O)C2O)cc1 (stereo not given),T/C,[10],103 % of control
same,T/C,"dose: 100.0 mg/kg/injection, schedule: Q04DX003 (ip), vehicle: saline with Tween-80",93 % of control
same,T/C,"dose: 200.0 mg/kg/injection, schedule: Q01DX009 (ip), vehicle: saline",104 % of control
same,T/C,"dose: 200.0 mg/kg/injection, schedule: Q04DX003 (ip), vehicle: saline with Tween-80",98 % of control
same,T/C,"dose: 400.0 mg/kg/injection, schedule: Q01DX009 (ip), vehicle: saline",103 % of control
same,T/C,"dose: 400.0 mg/kg/injection, schedule: Q04DX003 (ip), vehicle: saline with Tween-80",101 % of control
O=C(Nc1ccccc1[N+](=O)[O-])OC/C=C/c1ccccc1,T/C,[4],91 % of control
same,T/C,[5],91 % of control
same,T/C,[6],87 % of control
CCCOP(=O)(N1CC1(C)C)N1CC1(C)C (stereo not given),T/C,"dose: 6.3 mg/kg/injection, schedule: Q04DX003 (ip), vehicle: saline",101 % of control
same,T/C,[7],101 % of control
same,T/C,"dose: 25.0 mg/kg/injection, schedule: Q01DX009 (ip), vehicle: saline",119 % of control
same,T/C,[8],124 % of control
same,T/C,"dose: 50.0 mg/kg/injection, schedule: Q01DX009 (ip), vehicle: saline",188 % of control
same,T/C,[10],156 % of control and 186 % of control
same,T/C,[9],124 % of control
